{"source": "patent US8143308B2", "about": "“Synthesis of oligo/poly(catechins) and methods of use” (University of Massachusetts Lowell, priority 2005, dated 2012)", "key": {"[1]": {"system": "MCF-7 (HTB-22, low metastatic breast adenocarcinoma) cells", "assay": "Cell proliferation assay, MCF-7 low metastatic breast adenocarcinoma cells", "assay_type": "cell-based, human", "settings": "another experiment; only at high doses effective"}, "[2]": {"assay": "Stability of activity after dissolving in solvent"}, "[3]": {"system": "MCF-7 and MDA-MB-231 cells", "assay": "Anticancer activity in vitro, summary statements for breast cancer cells", "assay_type": "cell-based, human", "settings": "MCF-7 and MDA-MB-231 in vitro"}, "[4]": {"system": "MCF12A (CRL#10782, normal mammary epithelial) cells", "assay": "Cell proliferation assay, MCF12A normal mammary epithelial cells", "settings": "another experiment"}}}
{"substance": "(−)-epigallocatechin gallate [EGCG]", "values": [{"measurement": "dose at which effective on MCF-7", "setting": "[1]", "value": 9.2, "unit": "µg/mL"}, {"measurement": "time to loss of activity", "setting": "[2]", "value": "≤ 1", "unit": "h"}, {"measurement": "dose at which active / effective", "setting": "[3]", "value": "1 to 40", "unit": "µg/mL"}, {"measurement": "inhibition of normal MCF-12A cells (in words)", "setting": "[4]; 5.0 μg/ml", "value": "inhibited"}, {"measurement": "inhibition of normal MCF-12A cells (in words)", "setting": "[4]; 40 μg/ml", "value": "inhibited"}]}
